How the values were obtained:
human alpha-thrombin = target: T1, human alpha-thrombin (Homo sapiens, UniProt P00734); assay: Thrombin-catalyzed hydrolysis of chromogenic substrate Spectozyme TH (in vitro enzyme assay); assay type: biochemical; details: 1 nM thrombin, 37° C., pH 7.4; for Ki: 5-100 μM Spectozyme TH, read-out: Thr Ki (listed in place of the IC50); for IC50: 50 μM Spectozyme TH, read-out: Thr IC50
T1 construct: commercial human alpha-thrombin (American Diagnostica); purchased American Diagnostica
Description: Thrombin-catalyzed hydrolysis rates were measured spectrophotometrically using commercial human alpha-thrombin (American Diagnostica), a chromogenic substrate (Spectozyme® TH (H-D-HHT-Ala-Arg-pNA.2AcOH), American Diagnostica) in aqueous buffer (10 mM Tris, 10 mM Hepes, 150 mM NaCl, 0.1% PEG; pH 7.4), and a microplate reader (Molecular Devices). Changes in absorbance at 405 nm were monitored (Softmax, Molecular Devices), upon addition of enzyme, both with and without inhibitor present at 37° C. over 30 minutes. […] Michaelis-Menton kinetics were applied to the initial reaction slopes. […] Michaelis-Menton kinetics were applied to the initial reaction slopes using the program K.Cat (Bio Metallics Inc.).

Bovine type 1 trypsin = target: T2, Bovine type 1 trypsin (Bos taurus, UniProt P00760); assay: Trypsin-catalyzed hydrolysis of chromogenic substrate Spectrozyme TRY (in vitro enzyme assay); assay type: biochemical; details: 3.2 U/ml trypsin, 0.1-0.3 mM Spectrozyme TRY; for Ki: read-out: Trp Ki (listed in place of the IC50); for IC50: read-out: Trp IC50
T2 construct: purchased Sigma
T2 sequence (P00760 24-246): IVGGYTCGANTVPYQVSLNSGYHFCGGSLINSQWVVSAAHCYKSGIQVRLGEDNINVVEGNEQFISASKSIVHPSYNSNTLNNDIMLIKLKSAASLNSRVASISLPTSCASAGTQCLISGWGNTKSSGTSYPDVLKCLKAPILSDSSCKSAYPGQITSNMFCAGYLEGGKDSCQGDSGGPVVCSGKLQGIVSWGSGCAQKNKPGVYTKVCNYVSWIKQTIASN
Description: The compounds of the invention were tested for their ability to inhibit thrombin mediated hydrolysis. An in vitro enzyme assay was performed as well as an ex vivo assay. In addition, the compounds were tested in vitro for their ability to inhibit trypsin, as an indication of their selectivity.
Trypsin-catalyzed hydrolysis rates were measured using the same method as the thrombin procedure.
The compound numbers in the table correspond to the examples described hereinafter.

[1] = rat, in vivo, iv
Description: An ex vivo assay was conducted to determine the duration of action of the compounds of Formula I. For this i.v. assay male rats (Long Evans, 350-500 g) were implanted with a teflon cannulae via the femoral artery while under anesthesia (pentobarbital i.p., 35 mg/kg). […] The animals were allowed to recover for at least 24 h after the surgical procedure.
The test compound was dispersed in water and delivered to the animal (0.25 mL) via the femoral vein. […] A plasma sample was obtained by centrifuging the blood at 10,000 rpm for 5 min. This sample is analyzed for thrombin inhibition using the chromogenic assay, described below.
Datum was collected over a 30 min period and the initial rate of substrate hydrolysis (V0 (mOD/min)) was calculated with an analysis program (Softmax, Molecular Devices).
The time to half plasma elimination (t 1/2) was calculated from the slope of Vo vs. time, using the following equation: t 1/2=-1.6 slope.

Compound | IC50 (Bovine type 1 trypsin) [nM] | IC50 (human alpha-thrombin) [nM] | other results
CN(C)c1cccc2c(S(=O)(=O)N[C@@H](CCCNC(=N)N)C(=O)N3CCCCC3CCC(=O)c3nccs3)cccc12 (single isomer, unassigned) [Compound 26] | – | – | Ki (human alpha-thrombin): 38000 nM; Ki (Bovine type 1 trypsin): 180000 nM
CN(C)c1cccc2c(S(=O)(=O)N[C@@H](CCCNC(=N)N)C(=O)N3CCCCC3CCC(=O)c3nccs3)cccc12 (single isomer, unassigned) [Compound 27] | – | – | Ki (human alpha-thrombin): 1200 nM; Ki (Bovine type 1 trypsin): 12000 nM
CC1CNc2c(cccc2S(=O)(=O)N[C@@H](CCCNC(=N)N)C(=O)N2CC[C@@H](C)C[C@@H]2C(=O)O)C1 (stereo partly drawn) [Argatroban, reference compound] | – | – | Ki (Bovine type 1 trypsin): 2900 nM
CN[C@H](Cc1ccccc1)C(=O)N1CCC[C@H]1C(=O)N[C@H](CCCNC(=N)N)C(=O)c1nc2ccccc2s1 [Compound 2, N-METHYL-D-PHENYLALANYL-N-[4-[(AMINOIMINOMETHYL)AMINO]-1R-[(BENXOTHIAZOL-2- YL)CARBONYL]BUTYL]-L-PROLINAMIDE] | – | – | Ki (human alpha-thrombin): 0.9 nM
CN[C@H](Cc1ccccc1)C(=O)N1CCC[C@H]1C(=O)N[C@@H](CCCCNC(=N)N)C(=O)c1nc2ccccc2s1 [Compound 11, N-METHYL-D-PHENYLALANYL-N-[5-[(AMINOIMINOMETHYL)AMINO]-1S-[(BENXOTHIAZOL-2- YL)CARBONYL]PENTYL]-L-PROLINAMIDE] | – | – | Ki (human alpha-thrombin): 420 nM; Ki (Bovine type 1 trypsin): 6010 nM
CN[C@H](Cc1ccccc1)C(=O)N1CCC[C@H]1C(=O)N[C@@H](CCCNC(=N)N)C(=O)c1nc2ccc(C(=O)OC)cc2s1 [Compound 12, N-METHYL-D-PHENYLALANYL-N-[4-[(AMINOIMINOMETHYL)AMINO]-2S-[(6-METHOXYCARBON YLBENXOTHIAZOL-2-YL)CARBONYL]BUTYL]-L-PROLINAMIDE] | 3 | – | t1/2 (time to half plasma elimination) [1]: 43 min
CN[C@H](Cc1ccccc1)C(=O)N1CCC[C@H]1C(=O)N[C@@H](CCCNC(=N)N)C(=O)c1nc2ccc(C(=O)O)cc2s1 [Compound 13, N-METHYL-D-PHENYLALANYL-N-[4-[(AMINOIMINOMETHYL)AMINO]-1S-[(6-CARBOXYBENXOT HIAZOL-2-YL)CARBONYL]BUTYL]-L-PROLINAMIDE] | 2 | – | t1/2 (time to half plasma elimination) [1]: 25 min
CN[C@H](Cc1ccccc1)C(=O)N1CCC[C@H]1C(=O)N[C@@H](CCCNC(=N)N)C(=O)c1nc2ccc(C(N)=O)cc2s1 [Compound 14, N-METHYL-D-PHENYLALANYL-N-[4-[(AMINOIMINOMETHYL)AMINO]-1S-[(6-CARBOXAMIDOBE NXOTHIAZOL-2-YL)CARBONYL]BUTYL]-L-PROLINAMIDE] | 3 | – | –
CN[C@H](Cc1ccccc1)C(=O)N1CCC[C@H]1C(=O)N[C@@H](CCCNC(=N)N)C(=O)c1nc2ccc(CO)cc2s1 [Compound 15, N-METHYL-D-PHENYLALANYL-N-[4-[(AMINOIMINOMETHYL)AMINO]-1S-[(6-HYDROXYMETHYL BENXOTHIAZOL-2-YL)CARBONYL]BUTYL]-L-PROLINAMIDE] | 3 | – | t1/2 (time to half plasma elimination) [1]: 16 min
CN[C@H](Cc1ccccc1)C(=O)N1CCC[C@H]1C(=O)N[C@H](CCCNC(=N)N)C(=O)c1nc2ccc(CO)cc2s1 [Compound 16, N-METHYL-D-PHENYLALANYL-N-[4-[(AMINOIMINOMETHYL)AMINO]-1R-[(6-HYDROXYMETHYL BENXOTHIAZOL-2-YL)CARBONYL]BUTYL]-L-PROLINAMIDE] | 238 | – | –
CN[C@H](Cc1ccccc1)C(=O)N1CCC[C@H]1C(=O)N[C@@H](CCCNC(=N)N)C(=O)c1nc2ccc(F)cc2s1 [Compound 17, N-METHYL-D-PHENYLALANYL-N-[4-[(AMINOIMINOMETHYL)AMINO]-1S-[(6-FLUOROBENXOTH IAZOL-2-YL)CARBONYL]BUTYL]-L-PROLINAMIDE] | 4 | – | t1/2 (time to half plasma elimination) [1]: 8 min
CN[C@H](Cc1ccccc1)C(=O)N1CCC[C@H]1C(=O)N[C@@H](CCCNC(=N)N)C(=O)c1nc2ccc(F)cc2s1 [Compound 18, N-METHYL-D-PHENYLALANYL-N-[4-[(AMINOIMINOMETHYL)AMINO]-1S-[(6-FLUOROBENXOTH IAZOL-2-YL)CARBONYL]BUTYL]-L-PROLINAMIDE] | 130 | – | –
CCOC(=O)c1csc(C(=O)[C@H](CCCNC(=N)N)NC(=O)[C@@H]2CCCN2C(=O)[C@@H](Cc2ccccc2)NC)n1 [Compound 20, N-METHYL-D-PHENYLALANYL-N-[4-[(AMINOIMINOMETHYL)AMINO]-1S-[(4-ETHOXYCARBONY LTHIAZOL-2-YL)CARBONYL]BUTYL]-L-PROLINAMIDE] | 58 | 450 | –
CN[C@H](Cc1ccccc1)C(=O)N1CCC[C@H]1C(=O)N[C@@H](CCCNC(=N)N)C(=O)c1nccn1C [Compound 22] | 18400 | 1520 | –
CN[C@H](Cc1ccccc1)C(=O)N1CCC[C@H]1C(=O)N[C@@H](CCCNC(=N)N)C(=O)c1ccccn1 [Compound 23] | 238 | 928 | –
CN[C@H](Cc1ccccc1)C(=O)N1CCC[C@H]1C(=O)N[C@@H](CCCNC(=N)N)C(=O)c1nc2ccccc2c(=O)[nH]1 [Compound 24] | 14 | 106 | –
CN[C@H](CC1CCCCC1)C(=O)N1CCC[C@H]1C(=O)N[C@@H](CCCNC(=N)N)C(=O)c1nc2ccccc2s1 [Compound 29, N-METHYL-D-CYOLOHEXYLALANYL-N-[4-[(AMINOIMINOMETHYL)AMINO]-1S-[(BENXOTHIAZO L-2-YL)CARBONYL]BUTYL]-L-PROLINAMIDE] | 2 | – | t1/2 (time to half plasma elimination) [1]: 14 min

Compound | IC50 (Bovine type 1 trypsin) [nM] | IC50 (human alpha-thrombin) [nM] | other results
N=C(N)NCCC[C@H](NC(=O)C1CCCC1)C(=O)c1nc2ccccc2s1 [Compound 31] | 80 | – | –
CN[C@H](Cc1ccc(F)cc1)C(=O)N1CCC[C@H]1C(=O)N[C@@H](CCCNC(=N)N)C(=O)c1nc2ccccc2s1 [Compound 32, N-METHYL-D-(4-FLUOROPHENYL)ALANYL-N-[4-[(AMINOIMINOMETHYL)AMINO]-1S-[(BENXO THIAZOL-2-YL)CARBONYL]BUTYL]-L-PROLINAMIDE] | 2 | – | t1/2 (time to half plasma elimination) [1]: 19 min
CNC(C(=O)N1CCCC1C(=O)NC(CCCNC(=N)N)C(=O)c1nc2ccccc2s1)c1ccccc1 [Compound 33, N-METHYL-D-PHENYLGLYCYL-N-[4-[(AMINOIMINOMETHYL)AMINO]-1S-[(BENXOTHIAZOL-2- YL)CARBONYL]BUTYL]-L-PROLINAMIDE] | 2 | – | t1/2 (time to half plasma elimination) [1]: 18 min
CN[C@H](Cc1ccccc1)C(=O)N1CCC[C@H]1C(=O)N[C@@H](Cc1ccccc1)C(=O)c1nc2ccccc2s1 [Compound 38] | 38700 | 29900 | –
CN[C@H](Cc1ccccc1)C(=O)N1CCC[C@H]1C(=O)N(C)[C@@H](CCCNC(=N)N)C(=O)c1nc2ccccc2s1 [Compound 40] | 7010 | 20500 | –
N=C(N)NCCC[C@H](NC(=O)[C@@H]1CCCN1C(=O)[C@H](N)Cc1ccccc1)C(=O)c1nc2ccccc2s1 [Compound 41, D-PHENYLALANYL-N-[4-[(AMINOIMINOMETHYL)AMINO]-1S-[(BENZOTHIAZOL-2-YL)CARBON YL]BUTYL]-L-PROLINAMIDE] | 1 | – | –
CN[C@H](Cc1ccccc1)C(=O)N1CCCC[C@H]1C(=O)N[C@@H](CCCNC(=N)N)C(=O)c1nc2ccccc2s1 [Compound 42, N-METHYL-D-PHENYLALANYL-N-[4-[(AMINOIMINOMETHYL)AMINO]-1S-[(BENZOTHIAZOL-2- YL)CARBONYL]BUTYL]-2S-PIPERIDINECARBOXAMIDE] | 2 | – | –
CNC1(C(=O)N2CCC[C@H]2C(=O)N[C@@H](CCCNC(=N)N)C(=O)c2nc3ccccc3s2)CCCCC1 [Compound 45, 1-(N-METHYLAMINO)-1-CYCLOHEXYLCARBONYL-N-[4-[(AMINOIMINOMETHYL)AMINO]-1S-[( BENZOTHIAZOL-2-YL)CARBONYL]BUTYL]-L-PROLINAMIDE] | 9 | 371 | –
N=C(N)NCCC[C@H](NC(=O)[C@@H]1CCCN1C(=O)C(N)(c1ccccc1)c1ccccc1)C(=O)c1nc2ccccc2s1 [Compound 46] | 3 | 15 | –
C[C@@](N)(Cc1ccccc1)C(=O)N1CCC[C@H]1C(=O)N[C@@H](CCCNC(=N)N)C(=O)c1nc2ccccc2s1 [Compound 47] | 4 | – | –
N=C(N)NCCC[C@H](NC(=O)[C@@H]1CCCN1)C(=O)c1nc2ccccc2s1 [Compound 48] | 684 | – | –
CN[C@H](Cc1ccccc1)C(=O)N1CCC[C@H]1C(=O)N[C@@H](CCCNC(=N)N)C(=O)c1nc2ccc(OC)cc2s1 [Compound 50, N-METHYL-D-PHENYLALANYL-N-[4-[(AMINOIMINOMETHYL)AMINO]-1S-[(6-METHOXYBENXOT HIAZOL-2-YL)CARBONYL]BUTYL]-L-PROLINAMIDE] | – | – | Ki (Bovine type 1 trypsin): 2 nM
CN[C@H](Cc1ccccc1)C(=O)N1CCC[C@H]1C(=O)N[C@@H](CCCNC(=N)N)C(=O)c1nc(C(=O)NCCc2ccccc2)cs1 [Compound 55] | 8.6 | 830 | –
CN[C@H](Cc1ccccc1)C(=O)N1CCC[C@H]1C(=O)N[C@H](CCCNC(=N)N)C(=O)c1nc(C(=O)NCCc2ccccc2)cs1 [Compound 56] | 27.9 | 21000 | –
CN[C@H](Cc1ccccc1)C(=O)N1CCC[C@H]1C(=O)N[C@@H](Cc1ccc(C(=N)N)cc1)C(=O)c1nc2ccccc2s1 [Compound 57] | 182 | 19600 | –
CN[C@H](Cc1ccccc1)C(=O)N1CCC[C@H]1C(=O)N[C@H](C=O)CCCNC(=N)N [reference compound] | – | – | Ki (Bovine type 1 trypsin): 3.9 nM
